The species entered for one test is Ovis aries. As to the kind of experiment: Selectivity index, ratio of IC50 for ovine COX1 to IC50 for ovine COX2.
Test [1] addresses T1, Prostaglandin G/H synthase 2 (Ovis aries, UniProt P79208).
T1 sequence (P79208 whole entry): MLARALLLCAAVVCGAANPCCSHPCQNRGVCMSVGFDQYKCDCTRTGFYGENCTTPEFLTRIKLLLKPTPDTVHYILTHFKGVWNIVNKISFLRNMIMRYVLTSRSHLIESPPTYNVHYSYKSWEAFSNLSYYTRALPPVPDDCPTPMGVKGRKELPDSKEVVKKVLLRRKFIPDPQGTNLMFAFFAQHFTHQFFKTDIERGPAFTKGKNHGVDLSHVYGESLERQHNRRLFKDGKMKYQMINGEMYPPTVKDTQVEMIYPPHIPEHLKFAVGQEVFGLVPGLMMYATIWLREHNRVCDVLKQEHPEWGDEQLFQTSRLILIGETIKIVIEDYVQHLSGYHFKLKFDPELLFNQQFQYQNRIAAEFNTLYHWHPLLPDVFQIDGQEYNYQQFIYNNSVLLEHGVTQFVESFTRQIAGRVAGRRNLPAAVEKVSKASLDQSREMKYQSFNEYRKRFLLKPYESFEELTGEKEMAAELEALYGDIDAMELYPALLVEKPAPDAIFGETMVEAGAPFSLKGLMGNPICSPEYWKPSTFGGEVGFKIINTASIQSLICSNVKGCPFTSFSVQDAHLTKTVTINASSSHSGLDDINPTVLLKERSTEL
As to the kind of experiment: Inhibition of ovine COX2 by enzyme immunoassay.

Test [2] deals with T2, Prostaglandin G/H synthase 1 (Ovis aries, UniProt P05979).
T2 sequence (P05979 whole entry): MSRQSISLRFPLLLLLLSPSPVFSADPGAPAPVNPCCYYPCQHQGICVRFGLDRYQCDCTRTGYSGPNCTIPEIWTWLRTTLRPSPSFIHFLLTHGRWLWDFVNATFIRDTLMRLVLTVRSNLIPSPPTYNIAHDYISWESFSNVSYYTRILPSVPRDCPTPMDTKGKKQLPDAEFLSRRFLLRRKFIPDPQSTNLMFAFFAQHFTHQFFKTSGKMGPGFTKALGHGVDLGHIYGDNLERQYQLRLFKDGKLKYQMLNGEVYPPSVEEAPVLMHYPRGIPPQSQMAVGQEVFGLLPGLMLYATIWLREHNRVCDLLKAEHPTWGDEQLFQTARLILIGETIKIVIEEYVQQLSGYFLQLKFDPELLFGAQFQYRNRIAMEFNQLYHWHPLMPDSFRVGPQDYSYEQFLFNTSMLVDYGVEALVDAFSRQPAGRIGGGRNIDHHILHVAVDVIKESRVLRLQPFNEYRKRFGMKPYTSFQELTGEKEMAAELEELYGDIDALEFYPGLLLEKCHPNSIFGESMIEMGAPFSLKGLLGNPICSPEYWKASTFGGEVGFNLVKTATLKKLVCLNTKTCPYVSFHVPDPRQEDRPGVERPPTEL
The experiment in a line: Inhibition of ovine COX1 by enzyme immunoassay.

Some results are limits rather than exact numbers.

A word on the IC50: it is the concentration that gives 50% inhibition.

In the case of `CS(=O)(=O)Nc1ccc(C2=C(c3ccc(Cl)cc3)C(=O)OC2)cc1`, the COX1/COX2 IC50 selectivity index in the test filed under Ovis aries came to 39.4. The figures for the IC50 in test [1] and in test [2] were 0.8 µM and 31.5 µM, respectively.

In the case of `COc1ccc(C2=C(c3ccc(NS(C)(=O)=O)cc3)COC2=O)cc1`, in the test listed under Ovis aries, the COX1/COX2 IC50 selectivity index was greater than 31. Also, the values for the IC50 in test [1] and in test [2] were 31.5 µM and greater than 100 µM, respectively.

As to `CS(=O)(=O)Nc1ccc(C2=C(c3ccc(Br)cc3)C(=O)OC2)cc1`, the COX1/COX2 IC50 selectivity index in the test listed under Ovis aries came to 11.1. Moreover, the figures for the IC50 in test [1] and in test [2] were 3.2 µM and 35.5 µM, respectively.

With `Cc1ccc(C2=C(c3ccc(NS(C)(=O)=O)cc3)COC2=O)cc1`, the COX1/COX2 IC50 selectivity index in the test listed under Ovis aries was greater than 111. The IC50 is 0.9 µM in test [1] and greater than 100 µM in test [2].

For `CS(=O)(=O)Nc1ccc(C2=C(c3ccc(F)cc3)C(=O)OC2)cc1`, the COX1/COX2 IC50 selectivity index in the test filed under Ovis aries was 3.1. Further, the IC50 was 3.2 µM in test [1] and 10 µM in test [2].

For `CS(=O)(=O)Nc1ccc(C2=C(c3ccccc3)C(=O)OC2)cc1`, the COX1/COX2 IC50 selectivity index in the test filed under Ovis aries worked out at 18.5. Besides, the figures for the IC50 in test [1] and in test [2] were 1.7 µM and 31.6 µM, respectively.

The values are drawn from ChEMBL document CHEMBL1144527 (Bioorg Med Chem, 2007).
